Data published in patent US4210636A, “Antisecretory polypeptides” (American Home Products Corporation, priority 1978, dated 1980).
Bridge positions count the residues as written; N and C are the ends. Square brackets hold non-standard residues; d marks the D form. Peptide text beside a SMILES is read from it. Mpa = O=C(O)CCS

Experiments:
[1] = system: gastric secretion (total gastric volume, hydrogen ion secretion, hydrogen ion concentration); assay: Anti-secretory activity in pylorus-ligated (Shay) rat, s.c.; format: in vivo; settings: for hydrogen ion secretion / total gastric volume: at the reported potency dose (IV 26.3 mg/kg; V and VI 4.40 mg/kg); for Antisecretory potency: lowest dose administered at which two of the three parameters (total gastric volume, hydrogen ion secretion, hydrogen ion concentration) were significantly decreased: pylorus-ligated male Charles River rats, 4 hours after ligation
Protocol: Each of the polypeptides of this invention was tested and found active parenterally (s.c.) in the scientifically recognized, standard test for anti-secretory activity which involves the following procedure in which male Charles River rats weighing 190-260 grams are deprived of food but not water for eighteen hours prior to use. Water is withheld during the actual experiment. The rats are weighed, anesthetized with ether and the pylorus is ligated according to the method of Shay et al., Gastroenterology, 26, 906-913 (1954). Treatment or vehicle control is then administered subcutaneously (s.c.). The rats are housed two per cage and sacrificed with CO2 four hours after ligation. The stomachs are removed, rinsed, and contents emptied into a graduated centrifuge tube. The tubes are centrifuged for twenty minutes at two thousand revolutions per minute and the volume of gastric juice is recorded. Any sample which is obviously contaminated with feces, food or blood is eliminated. An aliquot of each sample is frozen for later analysis of pepsin. The pH is measured and one milliliter of gastric juice is titrated with 0.1 N NaOH to a pH of 7.0-7.4. The data are analyzed by analysis of variance and, using the pooled error variance, t-comparisons are made between the groups.
(§1) The potency of each compound is reported at the end of each example illustrating its production. […] In addition, the maximum dose employed to evaluate control of growth hormone, insulin and glucagon secretion is reported.

growth hormone secretion = assay: In vivo growth hormone secretion test
Description: as §1

insulin secretion = assay: In vivo insulin secretion test
Description: as §1

glucagon secretion = assay: In vivo glucagon secretion test
Description: as §1

gastric acid secretion = settings: dose as high as 2 μm/Kg, s.c.; cited from earlier work

| Compound | hydrogen ion secretion ([1]; pylorus-ligated rat) | total gastric volume ([1]; pylorus-ligated rat) | Antisecretory potency: lowest dose administered at which two of the three parameters (total gastric volume, hydrogen ion secretion, hydrogen ion concentration) were significantly decreased [1] | Growth hormone secretion not inhibited at highest dose tested (growth hormone secretion) | Insulin secretion not inhibited at highest dose tested (insulin secretion) | Glucagon secretion not inhibited at highest dose tested (glucagon secretion) | Dose that effectively inhibits secretion of growth hormone (growth hormone secretion; reference) | Dose that effectively inhibits secretion of insulin (insulin secretion; reference) | Dose that effectively inhibits secretion of glucagon (glucagon secretion; reference) | pH (gastric juice) ([1]; at 4.40 mg/kg, pylorus-ligated rat) | effect on gastric acid secretion (gastric acid secretion) |
| --- | --- | --- | --- | --- | --- | --- | --- | --- | --- | --- | --- |
| C[C@@H]1NC(=O)[C@H](CCCCN)NC(=O)[C@@H](N)CSSC[C@@H](C(=O)O)NC(=O)[C@H](CO)NC(=O)[C@H]([C@@H](C)O)NC(=O)[C@H](Cc2ccccc2)NC(=O)[C@H]([C@@H](C)O)NC(=O)[C@H](CCCCN)NC(=O)[C@H](Cc2c[nH]c3ccccc23)NC(=O)[C@H](Cc2ccccc2)NC(=O)[C@H](CO)NC1=O [IV, L-Cysteinyl-L-lysyl-L alanyl-L-seryl-L-phenylalanyl-L-tryptophyl-L-lysyl-L-threonyl-L-phenylalanyl-L-threonyl-L-seryl-L-cysteine cyclic (1→12) disulfide] (H-CKASFWKTFTSC-OH; disulfide 1-12) | significantly reduced | significantly reduced | 26.3 mg/kg | > 3.10 mg/kg | > 3.10 mg/kg | > 3.10 mg/kg | – | – | – | – | – |
| C[C@H](N)C(=O)NCC(=O)N[C@H]1CSSC[C@@H](C(=O)O)NC(=O)[C@H](CO)NC(=O)[C@H]([C@@H](C)O)NC(=O)[C@H](Cc2ccccc2)NC(=O)[C@H]([C@@H](C)O)NC(=O)[C@H](CCCCN)NC(=O)[C@H](Cc2c[nH]c3ccccc23)NC(=O)[C@H](Cc2ccccc2)NC(=O)[C@H](Cc2ccccc2)NC(=O)[C@H](CC(N)=O)NC(=O)[C@H](CCCCN)NC1=O [Somatostatin, reference compound] | – | – | – | – | – | – | about 10 micrograms per kilogram | about 10 micrograms per kilogram | about 10 micrograms per kilogram | – | – |
| C[C@@H](O)[C@@H]1NC(=O)[C@H](Cc2ccccc2)NC(=O)[C@H]([C@@H](C)O)NC(=O)[C@H](CCCCN)NC(=O)[C@H](Cc2c[nH]c3ccccc23)NC(=O)[C@H](Cc2ccccc2)NC(=O)[C@H](Cc2ccccc2)NC(=O)[C@H](CC(N)=O)NC(=O)CCSSC[C@@H](C(=O)O)NC(=O)[C@H](CO)NC1=O [V, β-Mercaptopropionyl-L-asparaginyl-L-phenylalanyl-L-phenylalanyl-L-tryptophyl-L-lysyl-L-threonyl-L-phenylalanyl-L-threonyl-L-seryl-L-cysteine cyclic (1→11) disulfide] ([Mpa]NFFWKTFTSC-OH; disulfide 1-11) | significantly reduced | significantly reduced | 4.40 mg/kg | > 1.90 mg/kg | > 1.90 mg/kg | > 1.90 mg/kg | – | – | – | – | – |
| CSCC[C@@H]1NC(=O)[C@H](Cc2ccccc2)NC(=O)[C@H](CC(N)=O)NC(=O)[C@H](CCCCN)NC(=O)[C@@H](NC(=O)CNC(=O)[C@H](C)N)CSSC[C@@H](C(=O)O)NC(=O)[C@H](CO)NC(=O)[C@H]([C@@H](C)O)NC(=O)[C@H](Cc2ccccc2)NC(=O)[C@H]([C@@H](C)O)NC(=O)[C@H](CCCCN)NC(=O)[C@H](Cc2c[nH]c3ccccc23)NC1=O [VI, L-Alanyl-glycyl-L-cysteinyl-L-lysyl-L-asparaginyl-L-phenylalanyl-L-methionyl-L-tryptophyl-L-lysyl-L-threonyl-L-phenylalanyl-L-threonyl-L-seryl-L-cystein cyclic (3→14) disulfide] (H-AGCKNFMWKTFTSC-OH; disulfide 3-14) | significantly reduced | significantly reduced | 4.40 mg/kg | > 1.0 mg/kg | > 1.0 mg/kg | > 1.0 mg/kg | – | – | – | significantly reduced | – |
| D-Lys^9 -SRIF | – | – | – | – | – | – | – | – | – | – | no appreciable effect |
